Measurements as given in US9445594B2, “Molecules having certain pesticidal utilities, intermediates, compositions, and processes, related thereto” (priority 2014, dated 2016).

How the values were obtained:
Format in all cases: in vivo
[1] = test system: Beet Armyworm (Spodoptera exigua, LAPHEG) ("BAW"); experiment: Bioassays on BAW, 128-well diet tray assay; conditions: 168 h, second instar larvae, 50 μg/cm^2 on artificial diet, 25° C., five to seven days, average of eight wells, read-out: BAW % Control (or Mortality) rating
How it was run: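 One to five second-instar larvae were placed per well on artificial diet surface-treated with 50 μg/cm^2 compound from 90:10 acetone-water, dried before infestation. Trays were held at 25 °C, 14:10 light-dark, for five to seven days. Percent mortality was averaged over eight wells.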

[2] = test system: Cabbage Looper (Trichoplusia ni, TRIPNI) ("CL"); experiment: Bioassays on CL, 128-well diet tray assay; conditions: 168 h, second instar larvae, 50 μg/cm^2 on artificial diet, 25° C., five to seven days, average of eight wells, read-out: CL % Control (or Mortality) rating
How it was run: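 Second-instar larvae (one to five per well) on artificial diet surface-treated with 50 μg/cm^2 compound in 90:10 acetone-water, eight wells per treatment. Held at 25° C., 14:10 light-dark for five to seven days. Percent mortality scored per well and averaged over the eight wells.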

[3] = test system: Green Peach Aphid (Myzus persicae, MYZUPE) ("GPA"); experiment: Bioassays on GPA, foliar spray of infested cabbage seedlings; conditions: 72 h, 200 ppm spray on cabbage seedlings, graded after three days, Abbott corrected % control, read-out: GPA % Control (or Mortality) rating
Description: Certain molecules disclosed in this document were tested against GPA using procedures described in the following example. In the reporting of the results, the “GPA Rating Table” was used (See Table Section).
Cabbage seedlings grown in 3-inch pots, with 2-3 small (3-5 cm) true leaves, were used as test substrate. The seedlings were infested with 20-50 GPA (wingless adult and nymph stages) one day prior to chemical application. Four pots with individual seedlings were used for each treatment. Test compounds (2 mg) were dissolved in 2 mL of acetone/methanol (1:1) solvent, forming stock solutions of 1000 ppm test compound. The stock solutions were diluted 5× with 0.025% Tween 20 in water to obtain the solution at 200 ppm test compound. A hand-held aspirator-type sprayer was used for spraying a solution to both sides of […] leaves until runoff. Reference plants (solvent check) were sprayed with the diluent only containing 20% by volume of acetone/methanol (1:1) solvent. Treated plants were held in a holding room for three days at approximately 25° C. and ambient relative humidity (RH) prior to grading. Evaluation was conducted by counting the number of live aphids per plant under a microscope. Percent Control was measured by using Abbott's correction formula (W. S. Abbott, “A Method of Computing the Effectiveness of an Insecticide” J. Econ. Entomol. 18 (1925), pp. 265-267) as follows. Corrected % Control=100*(X−Y)/X • where • X=No. of live aphids on solvent check plants and • Y=No. of live aphids on treated plants

[4] = test system: Yellow Fever Mosquito (Aedes aegypti, AEDSAE) ("YFM"); experiment: Bioassays on YFM, 96-well plate larval assay; conditions: about 1 day-old larvae, from 4000 ppm DMSO master plate diluted, room temperature, scored after 3 days
How it was run: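 Compounds from 4000 ppm DMSO master plates, diluted in 90:10 water:acetone, dispensed into 96-well plates, six replicates. About 1-day-old larvae added in liver-powder water. Wells covered, held 3 days at room temperature, then scored for mortality.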

Compound | mortality at 50 µg/cm2 [1] [%] | mortality at 50 µg/cm2 [2] [%] | mortality at 200 ppm [3] [%] | YFM % Control (or Mortality) rating [4]
CC(C)c1cccc(NC(=O)NCCCc2ccc(-c3ncn(-c4ccc(OC(F)(F)F)cc4)n3)cc2)c1 [P2, 1-(3-Isopropylphenyl)-3-(3-(4-(1-(4-(trifluoromethoxy)phenyl)-1H-1,2,4-triazol-3-yl)phenyl)propyl)urea] | 0 to 50 | 0 | 0 | D (No activity noticed in this bioassay)
CC(C)c1ccccc1-c1ccccc1NC(=S)Nc1ccc(-c2ncn(-c3ccc(OC(F)(F)F)cc3)n2)cc1 [F28, 1-(2′-isopropyl-[1,1′-biphenyl]-2-yl)-3-(4-(1-(4-(trifluoromethoxy)phenyl)-1H-1,2,4-triazol-3-yl)phenyl)thiourea] | 0 to 50 | 50 to 100 | 0 to 80 | D (No activity noticed in this bioassay)
CCc1ccccc1-c1cccnc1NC(=O)Nc1ccc(-c2ncn(-c3ccc(OC(F)(F)F)cc3)n2)cc1 [F16, 1-(3-(2-Ethylphenyl)pyridin-2-yl)-3-(4-(1-(4-(trifluoromethoxy)phenyl)-1H-1,2,4-triazol-3-yl)phenyl)urea] | 50 to 100 | 50 to 100 | 0 to 80 | D (No activity noticed in this bioassay)
CCCc1ccccc1NC(=O)Nc1ccc(-c2ncn(-c3ccc(OC(F)(F)F)cc3)n2)cc1 [F37, 1-(2-propylphenyl)-3-(4-(1-(4-(trifluoromethoxy)phenyl)-1H-1,2,4-triazol-3-yl)phenyl)urea] | 0 to 50 | 50 to 100 | 0 to 80 | B (More than 0 - Less than 80)
CC(C)CC(C)c1ccccc1NC(=O)Nc1ccc(-c2ncn(-c3ccc(OC(F)(F)F)cc3)n2)cc1 (stereo not drawn) [F18, 1-(2-(4-methylpentan-2-yl)phenyl)-3-(4-(1-(4-(trifluoromethoxy)phenyl)-1H-1,2,4-triazol-3-yl)phenyl)urea] | 50 to 100 | 50 to 100 | 0 | D (No activity noticed in this bioassay)
CSc1ccccc1-c1cccnc1NC(=S)Nc1ccc(-c2ncn(-c3ccc(OC(F)(F)F)cc3)n2)cc1 [F22, 1-(3-(2-(Methylthio)phenyl)pyridin-2-yl)-3-(4-(1-(4-(trifluoromethoxy)phenyl)-1H-1,2,4-triazol-3-yl)phenyl)thiourea] | 0 to 50 | 50 to 100 | 0 to 80 | D (No activity noticed in this bioassay)
O=C(Nc1ccc(-c2ncn(-c3ccc(OC(F)(F)F)cc3)n2)cc1)Nc1ncccc1-c1cccnc1 [F66, 1-([3,3′-Bipyridin]-2-yl)-3-(4-(1-(4-(trifluoromethoxy)phenyl)-1H-1,2,4-triazol-3-yl)phenyl)urea] | 50 to 100 | 50 to 100 | 0 to 80 | D (No activity noticed in this bioassay)
Cc1ccccc1-c1cccc(NC(=O)NCCCc2ccc(-c3ncn(-c4ccc(OC(F)(F)F)cc4)n3)cc2)c1 [FA2, 1-(2′-Methyl-[1,1′-biphenyl]-3-yl)-3-(3-(4-(1-(4-(trifluoromethoxy)phenyl)-1H-1,2,4-triazol-3-yl)phenyl)propyl)urea] | 0 | 0 | 0 | D (No activity noticed in this bioassay)
CC(C)c1ccccc1-c1ccccc1NC(=O)Nc1ccc(-c2ncn(-c3ccc(OC(F)(F)F)cc3)n2)cc1 [F63, 1-(2′-Isopropyl-[1,1′-biphenyl]-2-yl)-3-(4-(1-(4-(trifluoromethoxy)phenyl)-1H-1,2,4-triazol-3-yl)phenyl)urea] | 50 to 100 | 50 to 100 | 0 to 80 | D (No activity noticed in this bioassay)
Cc1ccc(C(C)C)c(NC(=O)NCCCc2ccc(-c3ncn(-c4ccc(OC(F)(F)F)cc4)n3)cc2)c1 [P6, 1-(2-Isopropyl-5-methylphenyl)-3-(3-(4-(1-(4-(trifluoromethoxy)phenyl)-1H-1,2,4-triazol-3-yl)phenyl)propyl)urea] | 50 to 100 | 50 to 100 | 0 | A (80-100)
CCc1ccccc1-c1ccccc1NC(=O)Nc1ccc(-c2ncn(-c3ccc(OC(F)(F)F)cc3)n2)cc1 [F35, 1-(2′-Ethyl-[1,1′-biphenyl]-2-yl)-3-(4-(1-(4-(trifluoromethoxy)phenyl)-1H-1,2,4-triazol-3-yl)phenyl)urea] | 50 to 100 | 50 to 100 | 0 | A (80-100)
Cc1ccccc1-c1ccccc1NC(=O)NCCCc1ccc(-c2ncn(-c3ccc(OC(F)(F)F)cc3)n2)cc1 [FA1, 1-(2′-Methyl-[1,1′-biphenyl]-2-yl)-3-(3-(4-(1-(4-(trifluoromethoxy)phenyl)-1H-1,2,4-triazol-3-yl)phenyl)propyl)urea] | 0 | 50 to 100 | 0 | A (80-100)
CCc1ccccc1-c1ccccc1NC(=S)Nc1ccc(-c2ncn(-c3ccc(OC(F)(F)F)cc3)n2)cc1 [F4, 1-(2′-Ethyl-[1,1′-biphenyl]-2-yl)-3-(4-(1-(4-(trifluoromethoxy)phenyl)-1H-1,2,4-triazol-3-yl)phenyl)thiourea] | 50 to 100 | 50 to 100 | 0 | A (80-100)
CC(C)c1ccccc1N(C(=O)Nc1ccc(-c2ncn(-c3ccc(OC(F)(F)F)cc3)n2)cc1)C(N)=S [F6, N-[2-(Propan-2-yl)phenyl]-N-(4-{1-[4-(trifluoromethoxy)phenyl]-1H-1,2,4-triazol-3-yl}phenyl)dicarbonimidothioic diamide] | 50 to 100 | 50 to 100 | 0 to 80 | A (80-100)
O=C(Nc1ccc(-c2ncn(-c3ccc(OC(F)(F)F)cc3)n2)cc1)Nc1ccccc1-c1ccccc1 [F31, 1-([1,1′-biphenyl]-2-yl)-3-(4-(1-(4-(trifluoromethoxy)phenyl)-1H-1,2,4-triazol-3-yl)phenyl)urea] | 50 to 100 | 50 to 100 | 0 to 80 | A (80-100)
